Measurements as given in ChEMBL document CHEMBL5329197, “Harvesting phosphorus-containing moieties for their antibacterial effects” (Bioorg Med Chem, 2023).
In brackets after ≈: the same amount, converted by molar mass.

Key:
[1] = Binding affinity to D-Ala-D-Ala assessed as dissociation constant
Neisseria gonorrhoeae = test: Antibacterial activity against Neisseria gonorrhoeae ATCC 49226 assessed as reduction in bacterial growth; assay type: functional
Staphylococcus aureus [2] = test: Antibacterial activity against methicillin-Staphylococcus aureus ATCC 43300 assessed as reduction in bacterial growth measured after 24 hrs by broth microdilution method; assay type: functional
[3] = Inhibition of Bordetella pertussis Adenylate cyclase toxin
Acinetobacter baumannii [4] = test: Antibacterial activity against Acinetobacter baumannii assessed as reduction in bacterial growth by Mueller-Hinton broth microdilution method; assay type: functional, organism-based
Staphylococcus aureus [5] = test: Antibacterial activity against methicillin-resistant Staphylococcus aureus assessed as reduction in bacterial cell growth incubated for 24 hrs by broth microdilution method; assay type: functional
[6] = Binding affinity to Escherichia coli ThiM TPP riboswitch assessed as dissociation constant
[7] = Inhibition of GIM1 (unknown origin)
Staphylococcus aureus [8] = test: Bactericidal activity against Staphylococcus aureus ATCC 25923 assessed as reduction in bacterial cell growth incubated for 24 hrs by CLSI-based analysis; assay type: functional
Bacillus subtilis [9] = test: Antibacterial activity against Bacillus subtilis ATCC 6633 assessed as minimum bactericidal concentration incubated for 24 hrs; assay type: functional
Escherichia coli [10] = test: Antibacterial activity against Escherichia coli JW 1772 assessed as reduction in microbial growth after 24 hrs by two-fold serial dilution method; assay type: functional
Staphylococcus aureus [11] = test: Antibacterial activity against Staphylococcus aureus ATCC 25923 assessed as reduction in microbial growth after 24 hrs by two-fold serial dilution method; assay type: functional
Nakaseomyces glabratus = test: Antifungal activity against Candida glabrata ATCC 15126 assessed as reduction in fungal growth incubated for 24 hrs by CLSI based analysis; assay type: functional
Salmonella typhimurium = test: Antibacterial activity against Salmonella typhimurium DT104 ATCC 14028 assessed as reduction in microbial growth measured after 24 hrs by CLSI-based method; assay type: functional, Salmonella enterica subsp. enterica serovar Typhimurium; details: Salmonella enterica
Escherichia coli [12] = test: Antibacterial activity against Escherichia coli assessed as minimum bactericidal concentration incubated for 24 hrs; assay type: functional
Candida albicans [13] = test: Antifungal activity against Candida albicans ATCC 28367 assessed as reduction in fungal growth incubated for 24 hrs by CLSI based analysis; assay type: functional
Bacillus subtilis [14] = test: Antibacterial activity against Bacillus subtilis ATCC 6633 assessed as reduction in microbial growth after 24 hrs by two-fold serial dilution method; assay type: functional
Escherichia coli [15] = test: Antibacterial activity against Escherichia coli assessed as reduction in bacterial growth; assay type: functional
Enterococcus durans = test: Antibacterial activity against Enterococcus durans assessed as reduction in bacterial growth; assay type: functional
Pseudomonas aeruginosa [16] = test: Antibacterial activity against Pseudomonas aeruginosa assessed as reduction in bacterial growth; assay type: functional
Bacillus subtilis [17] = test: Antibacterial activity against Bacillus subtilis assessed as reduction in bacterial growth; assay type: functional
Plasmodium falciparum = test: Antiplasmodial activity against Plasmodium falciparum assessed as parasitic growth inhibition; assay type: functional, organism-based
Enterococcus faecium = test: Antibacterial activity against Enterococcus faecium assessed as bacterial growth inhibition; assay type: functional
Escherichia coli [18] = test: Antibacterial activity against Escherichia coli ATCC 8730 assessed as reduction in bacterial cell growth measured after 24 hrs by microplate reader based analysis; assay type: functional
Staphylococcus aureus [19] = test: Antibacterial activity against methicillin-resistant Staphylococcus aureus assessed as inhibition of cell growth; assay type: functional
Enterococcus faecalis [20] = test: Antibacterial activity against Enterococcus faecalis assessed as bacterial growth inhibition; assay type: functional
Klebsiella pneumoniae [21] = test: Antibacterial activity against carbapenem resistance Klebsiella pneumoniae ATCC BAA-1705 assessed as inhibition of microbial growth measured after 24 hrs by microplate reader analysis; assay type: functional
Pseudomonas aeruginosa [22] = test: Antibacterial activity against Pseudomonas aeruginosa assessed as inhibition of bacterial growth measured after 24 hrs by CLSI-based microdilution method; assay type: functional
Enterococcus faecalis [23] = test: Antibacterial activity against Enterococcus faecalis assessed as inhibition of bacterial growth measured after 24 hrs by CLSI-based microdilution method; assay type: functional
Klebsiella pneumoniae [24] = test: Antibacterial activity against Klebsiella pneumonia assessed as inhibition of bacterial growth measured after 24 hrs by CLSI-based microdilution method; assay type: functional
Staphylococcus aureus [25] = test: Antibacterial activity against Staphylococcus aureus assessed as inhibition of bacterial growth measured after 24 hrs by CLSI-based microdilution method; assay type: functional
Escherichia coli [26] = test: Antibacterial activity against Escherichia coli assessed as reduction in bacterial growth measured after 24 hrs by CLSI-based Mueller-Hinton broth dilution method; assay type: functional
Acinetobacter baumannii [27] = test: Antibacterial activity against Acinetobacter baumannii assessed as reduction in bacterial growth measured after 24 hrs by Mueller-Hinton broth dilution method; assay type: functional
[28] = Binding affinity to Sporosarcina pasteurii Urease assessed as inhibition constant
Klebsiella aerogenes = test: Antibacterial activity against Enterobacter aerogenes assessed as zone of inhibition; assay type: functional
Escherichia coli [29] = test: Antibacterial activity against Escherichia coli assessed as zone of inhibition; assay type: functional
Carbonic anhydrase 2 [30] = target: T1, Carbonic anhydrase 2 (Homo sapiens, UniProt P00918); test: Binding affinity to human CA2 in U2OS cells assessed as inhibition constant; assay type: cell-based
Carbonic anhydrase 2 [31] = target: T1, Carbonic anhydrase 2; test: Binding affinity to CA2 (unknown origin) assessed as inhibition constant
Pseudomonas aeruginosa [32] = test: Antibacterial activity against Pseudomonas aeruginosa ATCC 27853 assessed as reduction in microbial growth measured after 24 hrs by Mueller-Hinton broth based two-fold serial dilution method; assay type: functional
Staphylococcus aureus [33] = test: Antibacterial activity against Staphylococcus aureus ATCC 25900 assessed as reduction in microbial growth measured after 24 hrs by Mueller-Hinton broth based two-fold serial dilution method; assay type: functional
Bacillus cereus = test: Antibacterial activity against Bacillus cereus assessed as reduction in microbial growth measured after 24 hrs by Mueller-Hinton broth based two-fold serial dilution method; assay type: functional
Escherichia coli [34] = test: Antibacterial activity against Escherichia coli ATCC 25922 assessed as reduction in microbial growth measured after 24 hrs by Mueller-Hinton broth based two-fold serial dilution method; assay type: functional
Candida albicans [35] = test: Antibacterial activity against Candida albicans assessed as reduction in microbial growth measured after 24 hrs by Mueller-Hinton broth based two-fold serial dilution method; assay type: functional
Acinetobacter baumannii [36] = test: Antibacterial activity against Acinetobacter baumannii assessed as reduction in microbial growth measured after 24 hrs by Mueller-Hinton broth based two-fold serial dilution method; assay type: functional
[37] = Inhibition of Bordetella pertussis Adenylate cyclase toxin in mouse J774.A1 cells; assay type: cell-based
Staphylococcus aureus [38] = test: Antibacterial activity against methicillin-susceptible Staphylococcus aureus assessed as reduction in bacterial cell growth; assay type: functional

CCC(CP(=O)(O)C(C)N)C(=O)O (stereo not drawn)
Ki [1]: 0.09 µM

C=C(C/C=C(\C)CCC=C(C)C)CCC(C)(C)/C=C/CC/C(C)=C\CO[C@H](COP(=O)(O)O[C@H]1O[C@H](C(N)=O)[C@@](C)(O)[C@H](OC(N)=O)[C@H]1O[C@@H]1O[C@H](CO[C@@H]2O[C@H](CO)[C@@H](O)[C@H](O)[C@H]2O)[C@@H](O[C@@H]2O[C@H](C)[C@@H](O[C@@H]3O[C@H](C(=O)NC4=C(O)CCC4=O)[C@H](O)[C@H](O)[C@H]3O)[C@H](O)[C@H]2NC(C)=O)[C@H](O)[C@H]1NC(C)=O)C(=O)O
MIC (Neisseria gonorrhoeae): 0.004 mg/L (≈ 0.00253 µM)

CS(=O)(=O)[O-].O=C(CCc1ccc(O)c(O)c1)NCCCCCCCCCC[P+](c1ccccc1)(c1ccccc1)c1ccccc1
MIC (Staphylococcus aureus [2]): 0.25 mg/L

CC(C)OC(=O)[C@H](Cc1ccccc1)NP(=O)(COCCn1cnc2c(N)nc(F)nc21)N[C@@H](Cc1ccccc1)C(=O)OC(C)C
IC50 [3]: 0.145 µM

CCCCCCCCCC[P+](CCCCCC[P+](CCCCCCCCCC)(c1ccccc1)c1ccccc1)(c1ccccc1)c1ccccc1
IC50 (Acinetobacter baumannii [4]): 3 µM

CCCCCC[P+](/C=C(\c1ccccc1)c1cc(Cl)ccc1O)(c1ccccc1OC)c1ccccc1OC
MIC (Staphylococcus aureus [5]): < 1 µM

Cc1ncc(C[n+]2csc(CCOP(=O)(O)CP(=O)(O)O)c2C)c(N)n1
Kd [6]: 0.02 µM

COP(=O)(CCSC(C)=O)NCc1ccccn1 (stereo not drawn)
IC50 [7]: 86 µM

O=P(c1ccccc1)(c1ccccc1)C1CCC/C1=N\O (stereo not drawn)
MBC (Staphylococcus aureus [8]): 2 mg/L (≈ 6.68 µM) | MBC (Bacillus subtilis [9]): 2 mg/L (≈ 6.68 µM) | MIC (Escherichia coli [10]): 0.1 mg/L | MIC (Staphylococcus aureus [11]): 0.1 mg/L | MIC (Nakaseomyces glabratus): 0.1 mg/L (≈ 0.334 µM) | MIC (Salmonella typhimurium): 0.1 mg/L | MBC (Escherichia coli [12]): 2 mg/L (≈ 6.68 µM) | MIC (Candida albicans [13]): 0.1 mg/L (≈ 0.334 µM) | MIC (Bacillus subtilis [14]): 0.1 mg/L

Cn1nccc1CP(=O)(Cc1ccnn1C)Cc1ccnn1C
MIC (Escherichia coli [15]): 0.15 mg/L (≈ 0.451 µM) | MIC (Enterococcus durans): 0.15 mg/L (≈ 0.451 µM) | MIC (Pseudomonas aeruginosa [16]): 0.15 mg/L (≈ 0.451 µM) | MIC (Bacillus subtilis [17]): 0.15 mg/L (≈ 0.451 µM)

CCCCCCCC(=O)OCOP(=O)(CCCC(=O)N(C)O)OCOC(=O)CCCCCCC
IC50 (Plasmodium falciparum): 0.05 µM

C[C@H](N)C(=O)N[C@@H](C)C(=O)N[C@@H](C)P(=O)(O)O
MIC90 (Enterococcus faecium): 2 mg/L (≈ 7.48 µM) | MIC90 (Escherichia coli [18]): 0.25 mg/L (≈ 0.936 µM) | MIC90 (Staphylococcus aureus [19]): 8 mg/L (≈ 29.9 µM) | MIC90 (Enterococcus faecalis [20]): 0.5 mg/L (≈ 1.87 µM) | MIC90 (Klebsiella pneumoniae [21]): 4 mg/L

Cc1ncc(Cn2cc(CCOP(=O)(O)CP(=O)(O)O)nn2)c(N)n1
Kd [6]: 0.009 µM

CCCCc1nc(Cl)c(C(Nc2ccc(S(N)(=O)=O)cc2)P(=O)(OCC)OCC)n1Cc1ccc(Cl)cc1 (stereo not drawn)
MIC (Pseudomonas aeruginosa [22]): 4 mg/L (≈ 6.63 µM) | MIC (Enterococcus faecalis [23]): 4 mg/L (≈ 6.63 µM) | MIC (Klebsiella pneumoniae [24]): 4 mg/L (≈ 6.63 µM) | MIC (Staphylococcus aureus [25]): 4 mg/L (≈ 6.63 µM) | MIC (Escherichia coli [26]): 2 mg/L (≈ 3.31 µM)

CCCCCCCCCCCC[P+](c1ccccc1)(c1ccccc1)c1ccccc1
MIC (Acinetobacter baumannii [27]): 6.25 µM

CN(C)CP(=O)(O)O
Ki [28]: 13 µM

CCCCCCCC[P+](CCCC)(CCCCCCCC)CCCCCCCC.CS(=O)(=O)[O-]
inhibition zone (IZ) (Klebsiella aerogenes): 14 mm | inhibition zone (IZ) (Escherichia coli [29]): 14 mm

O/N=C1\CCCC1P(=S)(c1ccccc1)c1ccccc1 (stereo not drawn)
MBC (Staphylococcus aureus [8]): 2 mg/L (≈ 6.34 µM) | MBC (Bacillus subtilis [9]): 2 mg/L (≈ 6.34 µM) | MIC (Escherichia coli [10]): 0.1 mg/L | MIC (Staphylococcus aureus [11]): 0.1 mg/L | MIC (Nakaseomyces glabratus): 0.1 mg/L (≈ 0.317 µM) | MIC (Salmonella typhimurium): 0.1 mg/L | MBC (Escherichia coli [12]): 2 mg/L (≈ 6.34 µM) | MIC (Candida albicans [13]): 0.1 mg/L (≈ 0.317 µM) | MIC (Bacillus subtilis [14]): 0.1 mg/L

COCCOP(N)(=O)c1ccccc1 (stereo not drawn)
Ki (Carbonic anhydrase 2 [30]): 32.8 µM | Ki (Carbonic anhydrase 2 [31]): 0.02 µM

CCOP(=O)(OCC)C(Nc1ncc(-c2cc3ccccc3oc2=O)s1)c1ccccc1Br (stereo not drawn)
MIC (Pseudomonas aeruginosa [32]): 0.125 mg/L | MIC (Staphylococcus aureus [33]): 0.125 mg/L | MIC (Bacillus cereus): 0.125 mg/L | MIC (Escherichia coli [34]): 0.125 mg/L | MIC (Candida albicans [35]): 0.125 mg/L | MIC (Acinetobacter baumannii [36]): 0.125 mg/L

CN(C)CP(C)(=O)O [(DIMETHYLAMINO)METHYL(METHYL)PHOSPHINIC ACID]
Ki [28]: 0.62 µM

Nc1ncnc2c1ncn2CCOCP(=O)(O)OP(=O)(O)OP(=O)(O)O [ADEFOVIR DIPHOSPHATE]
IC50 [3]: 0.018 µM | IC50 [37]: 0.15 µM

CCCCCCCCCC[P+](C)(C)CCCCCCCCCC.[Cl-] [DIDECYLDIMETHYLPHOSPHONIUM CHLORIDE]
MIC (Staphylococcus aureus [38]): 0.78 mg/L
